Biological target: T1, recombinant human 5-HT6 receptor (Homo sapiens, UniProt P50406)
T1 construct: expressed in transfected cells; cell membranes used
Experiment: in vitro radioligand binding, competition for [3H]LSD binding in membranes of HEK293 cells
Details: [3H]LSD (5 nM), HEK293 cell membranes, pH 7.4, 37° C., 60 min
Procedure: This example illustrates in vitro radioligand binding studies of Compound of Formula I.
The binding activity of compounds of this invention in vitro was determined as follows. Duplicate determinations of ligand affinity are made by competing for binding of [^3H]LSD in cell membranes derived from HEK293 cells stably expressing recombinant human 5-HT6 receptor.
All determinations were made in assay buffer containing 50 mM Tris-HCl, 10 mM MgSO4, 0.5 mM EDTA, 1 mM ascorbic acid, pH 7.4 at 37° C., in a 250 microliter reaction volume. Assay tubes containing [3H] LSD (5 nM), competing ligand, and membrane were incubated in a shaking water bath for 60 min. at 37° C., filtered onto Packard GF-B plates (pre-soaked with 0.3% PEI) using a Packard 96 well cell harvester and washed 3 times in ice cold 50 mM Tris-HCl. Bound [^3H] LSD was determined as radioactive counts per minute using Packard TopCount.
Displacement of [3H]LSD from the binding sites was quantified by fitting concentration-binding data to a 4-parameter logistic equation:
[formula] where Hill is the Hill slope, [ligand] is the concentration of competing radioligand and IC50 is the concentration of radioligand producing half-maximal specific binding of radioligand. The specific binding window is the difference between the Bmax and the basal parameters.
Using the procedures of Example 6, compounds of Formula I were tested and found to be selective 5-HT6 antagonists.

T1 sequence (P50406 whole entry): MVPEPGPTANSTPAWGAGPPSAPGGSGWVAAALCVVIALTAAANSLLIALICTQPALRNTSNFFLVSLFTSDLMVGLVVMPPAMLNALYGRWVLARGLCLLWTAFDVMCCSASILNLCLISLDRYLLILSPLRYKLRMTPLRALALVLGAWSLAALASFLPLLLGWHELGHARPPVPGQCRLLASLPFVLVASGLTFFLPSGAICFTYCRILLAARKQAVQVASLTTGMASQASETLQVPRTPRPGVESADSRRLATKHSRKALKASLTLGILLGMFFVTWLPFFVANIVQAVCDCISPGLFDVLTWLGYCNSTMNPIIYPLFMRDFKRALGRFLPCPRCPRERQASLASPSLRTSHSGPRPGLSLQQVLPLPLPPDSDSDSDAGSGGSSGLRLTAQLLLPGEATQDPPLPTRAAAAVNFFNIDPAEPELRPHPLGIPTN

SMILES	Ki [nM]
O=S(=O)(c1cccc(Br)c1)c1cc2cccc(N3CCNCC3)c2[nH]1 [Compound 11, 2-(3-Bromo-benzenesulfonyl)-7-piperazin-1-yl-1H-indole]	0.501
CN1CCN(c2cccc3cc(S(=O)(=O)c4cccc(Br)c4)[nH]c23)CC1 [Compound 10, 2-(3-Bromo-benzenesulfonyl)-7-(4-methyl-piperazin-1-yl)-1H-indole]	0.251
O=S(=O)(c1ccccc1)c1cc2cccc(N3CCNCC3)c2[nH]1 [Compound 1, 2-Benzenesulfonyl-7-piperazin-1-yl-1H-indole]	0.501
CN1CCN(c2cccc3cc(S(=O)(=O)c4ccccc4C(F)(F)F)[nH]c23)CC1 [Compound 8, 7-(4-Methyl-piperazin-1-yl)-2-(2-trifluoromethyl-benzenesulfonyl)-1H-indole]	0.316
O=S(=O)(c1cc2cccc(N3CCNCC3)c2[nH]1)c1ccccc1F [Compound 5, 2-(2-Fluoro-benzenesulfonyl)-7-piperazin-1-yl-1H-indole]	0.501
O=S(=O)(c1cc2cccc(N3CCNCC3)c2[nH]1)c1ccccc1C(F)(F)F [Compound 9, 7-Piperazin-1-yl-2-(2-trifluoromethyl-benzenesulfonyl)1H-indole]	0.316

Continued by falling Ki, values first:

Ki [nM]	SMILES
1	CN1CCC(c2cccc3cc(S(=O)(=O)c4ccccc4)[nH]c23)CC1 [Compound 7, 2-Benzenesulfonyl-7-(1-methyl-piperidin-4-yl)-1H-indole]
0.794	CN1CCN(c2cccc3cc(S(=O)(=O)c4ccccc4)[nH]c23)CC1 [Compound 2, 2-Benzenesulfonyl-7-(4-methyl-piperazin-1-yl)-1H-indole]
0.794	CN1CCN(c2cccc3cc(S(=O)(=O)c4cccc(Cl)c4Cl)[nH]c23)CC1 [Compound 4, 2-(2,3-Dichloro-benzenesulfonyl)-7-(4-methyl-piperazin-1-yl)-1H-indole]
0.631	O=S(=O)(c1ccccc1)c1cc2cccc(C3CCNCC3)c2[nH]1 [Compound 6, 2-Benzenesulfonyl-7-piperidin-4-yl-1H-indole]
0.2	O=S(=O)(c1cc2cccc(N3CCNCC3)c2[nH]1)c1cccc(Cl)c1Cl [Compound 3, 2-(2,3-Dichloro-benzenesulfonyl)-7-piperazin-1-yl-1H-indole]

Reference: patent US7247651B2, “2,7-substituted indoles” (Roche Palo Alto LLC, priority 2002, dated 2007)
